# Reference: patent US9598434B2, “Benzazepine compound” (Astellas Pharma Inc., priority 2010, dated 2017)
row,Compound,melting point [°C]
1,c1c2c(c(C3CC3)c3c1OCCN3C[C@H]1CCCO1)CCNCC2 [Example 227],156 to 158
2,COC[C@H](CN1CCOc2cc3c(c(C4CC4)c21)CCNCC3)OC.O=C(O)/C=C/C(=O)O,150 to 154
3,Clc1ccccc1CN1CCOc2cc3c(c(C4CC4)c21)CCNCC3.O=C(O)CCC(=O)O,106 to 109
4,FC(F)(F)c1cccc(CN2CCOc3cc4c(cc32)CCNCC4)c1.O=C(O)/C=C/C(=O)O,141 to 146
5,COCCN1C(=O)CCc2cc3c(c(Br)c21)CCNCC3.O=C(O)/C=C/C(=O)O,99 to 104
6,COc1ccc(Cl)cc1CN1CCOc2cc3c(c(C4CC4)c21)CCNCC3.O=C(O)/C=C/C(=O)O,193 to 196
7,Clc1cccc(-c2c3c(cc4c2NCCC4)CCNCC3)c1.O=C(O)/C=C/C(=O)O,159 to 162
8,CCOCCN1CCOc2cc3c(c(CC)c21)CCNCC3.O=C(O)/C=C/C(=O)O,179 to 181
9,CCCC1CN(C)c2cc3c(cc2O1)CCNCC3.O=C(O)/C=C/C(=O)O (centres unmarked),152 to 153
10,FC(F)CN1CCOc2cc3c(c(C4CC4)c21)CCNCC3.O=C(O)/C=C/C(=O)O,198 to 201
11,COCCN1c2cc3c(cc2OC[C@@H]1C)CCNCC3.O=C(O)/C=C/C(=O)O,131 to 134
12,COCC(F)(F)CN1CCOc2cc3c(cc21)CCNCC3.Cl,172 to 173
13,COCCN1CCOc2c1cc1c(c2Br)CCNCC1 [Example 176],107 to 110
14,COCC(C)(C)CN1CCOc2cc3c(c(C4CC4)c21)CCNCC3 [Example 231],141 to 145
15,CC(C)CN1C(=O)CCc2cc3c(cc21)CCNCC3.O=C(O)CCC(=O)O,142 to 144
16,O=C(O)/C=C/C(=O)O.c1c2c(c(C3CC3)c3c1OCCN3CC1CCOC1)CCNCC2 (centres unmarked),117 to 118
17,CN1CCOc2cc3c(c(-c4cccs4)c21)CCNCC3.O=C(O)/C=C/C(=O)O,248 to 252
18,COCCN1c2cc3c(cc2CCC1(C)C)CCNCC3.O=C(O)/C=C/C(=O)O,156 to 158
19,COCCN1CCC(C)(C)c2cc3c(cc21)CCNCC3.O=C(O)/C=C/C(=O)O,172 to 175
20,Cl.FC(F)(F)CN1CCOc2cc3c(c(Br)c21)CCNCC3,214 to 215
21,Cl.FC(F)(F)CN1CCOc2cc3c(cc21)CCNCC3,221 to 222
22,COc1ccccc1CCOC(=O)N1CCOc2cc3c(cc21)CCNCC3.O=C(O)CCC(=O)O,158 to 160

row,Compound,melting point [°C]
1,COCCN1C(=O)CCc2cc3c(cc21)CCNCC3.O=C(O)/C=C/C(=O)O,164 to 166
2,COCC(CN1CCOc2cc3c(c(C4CC4)c21)CCNCC3)Oc1ccc(F)cc1.O=C(O)/C=C/C(=O)O (centres unmarked),138 to 140
3,CCOC(=O)N1CCOc2c1cc1c(c2Cl)CCNCC1.O=C(O)CCC(=O)O,145 to 147
4,COCCN1CC(C)Oc2cc3c(c(C4CC4)c21)CCNCC3.O=C(O)/C=C/C(=O)O (centres unmarked),102 to 103
5,Cc1c2c(cc3c1N(CCCF)CCO3)CCNCC2.O=C(O)/C=C/C(=O)O,187 to 190
6,COCC(C)CN1CCOc2cc3c(cc21)CCNCC3 (centres unmarked) [Example 318],129 to 132
7,O=C(O)CCC(=O)O.O=C(OCCc1ccccc1)N1CCOc2c1cc1c(c2Br)CCNCC1,142 to 143
8,Fc1cccc(CN2CCOc3cc4c(c(C5CC5)c32)CCNCC4)c1F.O=C(O)/C=C/C(=O)O,157 to 159
9,CC(COC(=O)N1CCOc2cc3c(cc21)CCNCC3)c1ccccc1.O=C(O)CCC(=O)O (centres unmarked),177 to 179
10,O=C(O)CCC(=O)O.O=C(OCCc1ccccc1)N1CCOc2c1cc1c(c2-c2ccccc2)CCNCC1,169 to 171
11,CC1(C)CCc2cc3c(cc2N1)CCNCC3,270 to 273
12,O=C(O)C(=O)O.O=C(OCCc1ccccc1)N1CCCc2cc3c(c(Br)c21)CCNCC3,176 to 177
13,CO[C@@H](C)CN1CCOc2cc3c(c(C4CC4)c21)CCNCC3.O=C(O)/C=C/C(=O)O,135 to 138
14,COCC(F)(F)CN1CCOc2cc3c(c(C4CC4)c21)CCNCC3.O=C(O)/C=C/C(=O)O,163 to 165
15,CCOCc1cc(F)c(OCCN2CCOc3cc4c(c(C5CC5)c32)CCNCC4)c(F)c1.O=C(O)/C=C/C(=O)O,138 to 139
16,CCOCCN1CCOc2cc3c(c(C)c21)CCNCC3.O=C(O)/C=C/C(=O)O,152 to 155
17,COCCCN1CCOc2cc3c(c(C)c21)CCNCC3.O=C(O)/C=C/C(=O)O,160 to 163
18,COCCN1CCOc2cc3c(c(-c4ccccc4)c21)CCNCC3.O=C(O)/C=C/C(=O)O,199 to 201
19,c1c2c(c(C3CC3)c3c1OCCN3CC1CCOCC1)CCNCC2 [Example 250],153 to 155
20,COCC(CN1CCOc2cc3c(c(C4CC4)c21)CCNCC3)Oc1ccc(F)cc1F.O=C(O)/C=C/C(=O)O (centres unmarked),150 to 151
21,CCOC(=O)N1CCCc2cc3c(c(Br)c21)CCNCC3.O=C(O)C(=O)O,187 to 189
22,Cc1c2c(cc3c1N(C[C@H](C)F)CCO3)CCNCC2.O=C(O)/C=C/C(=O)O,165 to 168

row,Compound,melting point [°C]
1,O=C(O)/C=C/C(=O)O.c1cc(CN2CCOc3cc4c(c(C5CC5)c32)CCNCC4)c2c(c1)OCCO2,184 to 187
2,COC(C)(C)CN1CCOc2cc3c(c(C4CC4)c21)CCNCC3 [Example 230],155 to 156
3,COc1cccc(CN2C(=O)COc3cc4c(cc32)CCNCC4)c1.O=C(O)CCC(=O)O,188 to 189
4,"O=C1CCc2cc3c(c(Cl)c2N1)CCNCC3 [Example 1, 11-chloro-1,3,4,6,7,8,9,10-octahydro-2H-azepino[4,5-g]quinolin-2-one]",165 to 167
5,Cl.O=C1CCc2cc3c(cc2N1Cc1ccccc1)CCNCC3,177 to 180
6,CC(Cc1ccccc1)OC(=O)N1CCOc2cc3c(cc21)CCNCC3.O=C(O)CCC(=O)O (centres unmarked),85 to 87
7,COCCN1CCOc2cc3c(c(-c4ccccc4F)c21)CCNCC3.O=C(O)/C=C/C(=O)O,179 to 182
8,Fc1c(Cl)cccc1CN1CCOc2cc3c(c(C4CC4)c21)CCNCC3.O=C(O)/C=C/C(=O)O,181 to 184
9,COc1cccc(CCOC(=O)N2CCOc3cc4c(cc32)CCNCC4)c1.O=C(O)CCC(=O)O,134 to 136
10,O=C(O)CCC(=O)O.O=C(OCCc1ccccc1F)N1CCOc2cc3c(cc21)CCNCC3,186 to 187
11,CCCc1c2c(cc3c1N(C)CCO3)CCNCC2 [Example 225],151 to 152
12,FC1(F)Oc2ccc(CN3CCOc4cc5c(c(C6CC6)c43)CCNCC5)cc2O1.O=C(O)/C=C/C(=O)O,161 to 164
13,COCCCN1C(=O)CCc2cc3c(c(Br)c21)CCNCC3.O=C(O)/C=C/C(=O)O,153 to 155
14,CC1(C)CC(=O)Nc2cc3c(cc21)CCNCC3.Cl,270 to 272
15,O=C(O)CCC(=O)O.O=C1COc2cc3c(cc2N1Cc1ccccc1Cl)CCNCC3,119 to 127
16,O=C(O)/C=C/C(=O)O.OCCN1CCOc2cc3c(c(C4CC4)c21)CCNCC3,146 to 150
17,Cl.FC(F)(F)CN1CCOc2c1cc1c(c2Br)CCNCC1,216 to 221
18,Fc1cccc(CN2CCOc3cc4c(c(C5CC5)c32)CCNCC4)c1.O=C(O)CCC(=O)O,102 to 105
19,COC[C@@H](CN1CCOc2cc3c(c(C4CC4)c21)CCNCC3)OC.O=C(O)/C=C/C(=O)O,156 to 158
20,COCCN1CCOc2cc3c(c(C=C(C)C)c21)CCNCC3.O=C(O)/C=C/C(=O)O,173 to 176
21,O=C(O)CCC(=O)O.c1ccc(CN2CCOc3cc4c(c(C5CC5)c32)CCNCC4)cc1,107 to 110
22,COCCN1C(=O)C(C)(C)Oc2cc3c(cc21)CCNCC3.O=C(O)/C=C/C(=O)O,175 to 176

row,Compound,melting point [°C]
1,CCCN1C(=O)CCc2cc3c(cc21)CCNCC3.Cl,125 to 129
2,COCCN1c2cc3c(cc2OC[C@H]1C)CCNCC3.O=C(O)/C=C/C(=O)O,133 to 136
3,O=C(O)CCC(=O)O.O=C(OCCc1cccc(F)c1)N1CCOc2cc3c(cc21)CCNCC3,162 to 164
4,CCCc1c2c(cc3c1OCCN3C(=O)OCCc1ccccc1)CCNCC2.O=C(O)/C=C/C(=O)O,134 to 136
5,CC(C)CN1CCOc2cc3c(c(C4CC4)c21)CCNCC3 [Example 262],160 to 162
6,COc1cc(OCCN2CCOc3cc4c(c(C5CC5)c32)CCNCC4)c(F)cc1C#N.O=C(O)/C=C/C(=O)O,125 to 128
7,C[C@H](F)CN1CCOc2cc3c(c(C4CC4)c21)CCNCC3.O=C(O)/C=C/C(=O)O,171 to 173
8,O=C(O)CCC(=O)O.c1ccc(OCCN2CCOc3cc4c(cc32)CCNCC4)cc1,132 to 134
9,CCc1c2c(cc3c1N(CCCF)CCO3)CCNCC2 [Example 264],153 to 154
10,O=C(O)CCC(=O)O.O=C(OCCc1ccc(F)cc1)N1CCOc2cc3c(cc21)CCNCC3,179 to 181
11,COCC(CN1CCOc2cc3c(c(C4CC4)c21)CCNCC3)Oc1ccccc1F.O=C(O)/C=C/C(=O)O (centres unmarked),132 to 133
12,O=C(O)CCC(=O)O.O=C(OCCc1ccccc1)N1CCOc2cc3c(cc21)CCNCC3,185 to 187
13,COc1ccc(CN2C(=O)COc3cc4c(cc32)CCNCC4)cc1.O=C(O)CCC(=O)O,173 to 176
14,CCN1CCOc2cc3c(c(C4CC4)c21)CCNCC3.O=C(O)/C=C/C(=O)O,174 to 177
15,O=C(O)CCC(=O)O.O=C(OCCc1ccccc1)N1CCOc2c1cc1c(c2C2CC2)CCNCC1,142 to 144
16,O=C(O)CCC(=O)O.O=C(OCCc1ccccc1Cl)N1CCCc2cc3c(cc21)CCNCC3,187 to 188
17,CC(C)COC(=O)N1CCCc2cc3c(cc21)CCNCC3.Cl,202 to 207
18,O=C(O)/C=C/C(=O)O.c1nc(CN2CCOc3cc4c(cc32)CCNCC4)cs1,134 to 138
19,CCCN1C(=O)CCc2cc3c(c(C4CC4)c21)CCNCC3.O=C(O)CCC(=O)O,170 to 171
20,CCNC(=O)N1CCCc2cc3c(c(C)c21)CCNCC3.O=C(O)C(=O)O,170 to 171
